Non-standard residues stand in square brackets, D forms with d. Residues, ends and D or L forms follow the SMILES beside them. *: point of attachment. dPhe(4-NHCONH2) = NC(=O)Nc1ccc(C[C@@H](N)C(=O)O)cc1; Dihydroorotyl(S) = O=C1C[C@@H](C(=O)*)NC(=O)N1; dPhe(4-Cl) = N[C@H](Cc1ccc(Cl)cc1)C(=O)O; Phe(4-NH2) = Nc1ccc(C[C@H](N)C(=O)O)cc1; d2Nal = N[C@H](Cc1ccc2ccccc2c1)C(=O)O; Lys(iPr) = CC(C)NCCCC[C@H](N)C(=O)O; d3Pal = N[C@H](Cc1cccnc1)C(=O)O
What was measured:
[1] = test system: patient with lithium induced psoriasis; experiment: Treatment of psoriasis (PASI, serum uric acid, testosterone); format: in vivo, human
Description: The PASI score is a standardized score for assessing disease activity in psoriasis.
He therefore received testosterone supplementation in the form of Testogel containing 50 mg of testosterone, first daily; thereafter every 3 days to maintain testosterone levels within the normal range.
There are very few trials of lithium induced psoriasis. One trial examined 15 patients with psoriasis who were taking lithium.

[2] = test system: patient with spondyloarthritis; experiment: Treatment of spondyloarthritis with Degarelix (BASDAI); format: in vivo, human
Description: • person, diagnosed with spondyloarthritis • Fulfilled the ASAS criteria for axial radiographic spondyloarthritis. Experimental Treatment • October 2014 received first dose of Degarelix 240 mg sc. • Received Degarelix 80 mg sc every two weeks thereafter. Assessment of Response Disease activity in ankylosing spondylitis/spondyloarthritis is measured by the BASDAI (Bath Ankylosing Spondylitis Disease Activity Index^1), has been extensively validated in clinical trials^2-3, and is one of the most commonly used outcome measures in clinical trials. This is a composite index that evaluates fatigue, axial and peripheral pain, stiffness and enthesopathy. Their BASDAI was at 3.8 at baseline. In October 2014 they received their first dose of Degarelix 240 mg sc. By 2 weeks, their BASDAI had reduced to 2.9, and by 8 weeks it had reduced to 1.3, remission. At 4 months, their BASDAI continues to be low at 1.5. • Response to therapy in clinical practice is defined as improvement of 2 units or 50% on a 0-10 scale of the BASDAI, and expert opinion that the treatment should be continued. Their reduction by 4 moths was 2.3 we shall continue treatment.

[3] = test system: patient with multiple sclerosis; experiment: Treatment of progressive multiple sclerosis with Degarelix, with concomitant Famprydine; format: in vivo, human; conditions: MS patient
Description: • person, diagnosed with multiple sclerosis (MS). Their MS was of the progressive type; characterized by a steady deterioration in function. • Fulfilled the 2010 McDonald Criteria for the diagnosis of MS 1. Experimental Treatment • So far results of clinical trials for progressive MS have generally been disappointing. Currently, there is no FDA approved treatment for progressive MS disease. • December 2014 received first dose of Degarelix 240 mg sc. • Received Degarelix 80 mg s.c every two weeks thereafter. Difficulties in Assessing Response in Progressive MS • Almost all trials in progressive MS show a worsening in function over time. The primary endpoint of these trials is usually to be able to show less worsening in the active treatment group compared to the placebo/other treatment group. Worsening is often defined as an increase in the Expanded Disability Status Scale (EDSS). EDSS is severely restrictive as an outcome measure for trials in progressive sclerosis.^2 Trials have not shown improvements in the EDSS or function in MS patients.^2 Optimal outcome measures in progressive MS are open to debate. • Effective imaging outcomes in clinical trials have allowed for the development of treatments for the relapsing-remitting type of MS. […] One of the most important factors in choosing outcome measures for these patients is the meaningfulness to patients. Assessment of Response at 6 Weeks
This was particularly evident in their ability to raise their feet onto a step, physiotherapy exercises, and dressing. In the past year, they previously had always required their spouse's help to climb a step at home, or to carry out certain lower limb exercises with their physiotherapist. By 4 weeks of GnRH antagonist treatment, they no longer required their spouse's help/physiotherapist's help to perform these activities. They climbed onto a step unaided at […] checkup. The improvement started at around 4 weeks after the initiation of therapy, and continued to improve further by 6 weeks. Expanded Disability Status Scale (EDSS): • This patient's EDSS has remained stable at 6.5, as expected over such a short time period of 6 weeks. A score of 6.5 is equivalent to only being able to walk with the aid of a walker, as in their case. This was evident at baseline and 6 weeks. Multiple Sclerosis Impact Scale 29 (MSIS-29): • Patient-reported outcomes are of increasing importance in trials of progressive multiple sclerosis.^2The most frequently used global patient-reported outcome in multiple sclerosis is the MSIS-29.^3 This has been correlated with clinical and imaging metrics specifically in progressive forms of the disease.^4 According to a recent review,^2 patient reported outcomes in trials of progressive multiple sclerosis can be used to validate MRI or clinical metrics, and increased use of patient-reported outcomes in trials of progressive multiple sclerosis will expected to help satisfy regulators' requirements that treatments show relevant benefit for patients. • At baseline, they scored 121 on the MSIS-29. By 6 weeks, their score was reduced to 110. A clinically significant minimal difference is a score change of 8. Therefore this reduction of 11 in their score is considered clinically significant.^5 Multiple Sclerosis Walking Scale-12 (MSWS-12) • The MSWS-12^6 was designed as a disease-specific patient-based instrument for use in clinical trials and clinical practice, to capture the complex impact of MS on walking ability. […] One of the most important attributes of the MSWS-12 in comparison to other assessments of walking in MS patients, is its responsiveness to change. […] By 6 weeks, their score was reduced to 53. This is a 12% improvement. A minimal clinically significant difference has not yet been established. […]

[4] = test system: patients with rheumatoid arthritis; conditions: human, in vivo
Description: They were not taking any therapies for osteoporosis during this period.

## CC(=O)N[C@H](Cc1ccc2ccccc2c1)C(=O)N[C@H](Cc1ccc(Cl)cc1)C(=O)N[C@H](Cc1cccnc1)C(=O)N[C@@H](CO)C(=O)N[C@@H](Cc1ccc(NC(=O)[C@@H]2CC(=O)NC(=O)N2)cc1)C(=O)N[C@H](Cc1ccc(NC(N)=O)cc1)C(=O)N[C@@H](CC(C)C)C(=O)N[C@@H](CCCCNC(C)C)C(=O)N1CCC[C@H]1C(=O)N[C@H](C)C(N)=O [Degarelix] (Ac-[d2Nal][dPhe(4-Cl)][d3Pal]S[Phe(4-NH2)](Dihydroorotyl(S))[dPhe(4-NHCONH2)]L[Lys(iPr)]P[dA]-NH2)
[1]; after the first week
  testosterone levels (normal 8-35 nmol/L): < 1 nmol/L
[1]; at 6 months
  improvement in psoriasis: stable
[1]; baseline
  Psoriasis Area Severity Index (PASI) score: 53.6
  serum uric acid (230-480 umol/L): 485 µmol/L
[1]; before therapy
  testosterone levels (normal 8-35 nmol/L): 12 nmol/L
[1]; by 8 weeks
  PASI reduction: 23%
  serum uric acid (230-480 umol/L): 432 µmol/L
[1]; week 8, under testosterone substitution (Testogel)
  testosterone levels (normal 8-35 nmol/L): 9 nmol/L
[2]; at 4 months
  BASDAI: 1.5
[2]; baseline
  BASDAI: 3.8
[2]; by 2 weeks
  BASDAI: 2.9
[2]; by 8 weeks (remission)
  BASDAI: 1.3
[3]; 29 Apr. 2015, after discontinuing Famprydine on 5 Apr. 2015
  timed walk: 14.0 s
[3]; baseline
  MFIS-5: 20
  MSIS-29: 121
  MSWS-12: 60
[3]; baseline and 6 weeks
  Expanded Disability Status Scale (EDSS): 6.5
[3]; baseline, stable Famprydine
  Timed 25 Foot Walk (T25FW): 16.7 s
[3]; by 2 months, with Famprydine
  timed walk: 14.0 s
[3]; by 4 months, with Famprydine
  timed walk: 11.9 s
[3]; by 5 months (30 Mar. 2015), with Famprydine
  timed walk: 11.8 s
[3]; by 6 weeks
  MFIS-5: 12
  MFIS-5 reduction: 40%
  MSIS-29: 110
  MSWS-12: 53
  MSWS-12 improvement: 12%
[3]; by 6 weeks, clinically significant minimal difference 8
  MSIS-29 score reduction: 11
[3]; from around 4 weeks to 6 weeks
  General function (patient reported): a general improvement in their function
[4]
  bone mineral density in hips: improved
